Assay results: patent US12649925B2, “Tissue-specific expression and hybrid plant production” (Dow AgroSciences LLC, priority 2013, dated 2026)

B1: pDAB112375: Transient transformation construct: ZmUbilv2/AAD1 v3/native WT miR529-156 site/ZmPer5 3′UTR (SEQ ID NO:6) (nucleic acid)
DNA: ATGGCTCATGCTGCCCTCAGCCCTCTCTCCCAACGCTTTGAGAGAATAGCTGTCCAGCCACTCACTGGTGTCCTTGGTGCTGAGATCACTGGAGTGGACTTGAGGGAACCACTTGATGACAGCACCTGGAATGAGATATTGGATGCCTTCCACACTTACCAAGTCATCTACTTTCCTGGCCAAGCAATCACCAATGAGCAGCACATTGCATTCTCAAGAAGGTTTGGACCAGTTGATCCAGTGCCTCTTCTCAAGAGCATTGAAGGCTATCCAGAGGTTCAGATGATCCGCAGAGAAGCCAATGAGTCTGGAAGGGTGATTGGTGATGACTGGCACACAGACTCCACTTTCCTTGATGCACCTCCAGCTGCTGTTGTGATGAGGGCCATAGATGTTCCTGAGCATGGCGGAGACACTGGGTTCCTTTCAATGTACACAGCTTGGGAGACCTTGTCTCCAACCATGCAAGCCACCATCGAAGGGCTCAACGTTGTGCACTCTGCCACACGTGTGTTCGGTTCCCTCTACCAAGCACAGAACCGTCGCTTCAGCAACACCTCAGTCAAGGTGATGGATGTTGATGCTGGTGACAGAGAGACAGTCCATCCCTTGGTTGTGACTCATCCTGGCTCTGGAAGGAAAGGCCTTTATGTGAATCAAGTCTACTGTCAGAGAATTGAGGGCATGACAGATGCAGAATCAAAGCCATTGCTTCAGTTCCTCTATGAGCATGCCACCAGATTTGACTTCACTTGCCGTGTGAGGTGGAAGAAAGACCAAGTCCTTGTCTGGGACAACTTGTGCACCATGCACCGTGCTGTTCCTGACTATGCTGGCAAGTTCAGATACTTGACTCGCACCACAGTTGGTGGAGTTAGGCCTGCCCGCTGAGTAGTTAGCTTAATCACCTAGAGCTCGACTCCAGCTGTGCTCTCTCTCTTCTGTCAACTCAGGTAACCTTTAAACTGAGGGCACTGAAGTCGCTTGATGTGCTGAATTGTTTGTGATGTTGGTGGCGTATTTTGTTTAAATAAGTAAGCATGGCTGTGATTTTATCATATGATCGATCTTTGGGGTTTTATTTAACACATTGTAAAATGTGTATCTATTAATAACTCAATGTATAAGATGTGTTCATTCTTCGGTTGCCATAGATCTGCTTATTTGACCTGTGATGTTTTGACTCCAAAAACCAAAATCACAACTCAATAAACTCATGGAATATGTCCACCTGTTTCTTGAAGAGTTCATCTACCATTCCAGTTGGCATTTATCAGTGTTGCAGCGGCGCTGTGCTTTGTAACATAACAATTGTTACGGCATATATCCAA
modifications: pDAB112375 expression cassette; (918)..(952) native tsh4 miR529-156 target site; (967)..(1331) ZmPer5 3′UTR

Experiments:
[1] = test system: maize tissues; test: miRNA microarray expression profiling in maize tissues; set-up: species or system Zea mays
Method: miRNA microarray in various maize tissues: Tissues from maize inbred line B104 were used for miRNA profiling. Leaf tissues (at V2, V8 and flag leaf stages); immature tassel tissues (0.5 to 2.5 cm length); mature tassel tissues (tassel visible in the whorl); immature ear tissues (0.5 to 2 cm length); and mature ear tissues (visible ear shoot) were collected and immediately submerged in liquid nitrogen and stored at −80° C. Total RNA and low molecular weight RNAs were extracted using a mirVana™ miRNA isolation kit (INVITROGEN; Carlsbad, CA) following the manufacturer's instructions. RNA quality and quantity were assessed by optical density with a NANODROP 2000 spectrophotometer (THERMO SCIENTIFIC; Wilmington, DE) and by gel electrophoresis. miRNA microarray was performed by a commercial provider (LC SCIENCES; Houston, TX) using μParaflo® microfluidic oligonucleotide microarray technology. Zhou et al., (2012) Methods Mol. Biol. 822:153-82. All unique plant miRNA sequences available in MiRBase™ (mirbase.org) were printed on the arrays and used for miRNA profiling. […]

[2] = test system: Maize Immature Embryos; test: Transient AAD1 expression in immature embryos after particle bombardment, ELISA; type: cell-based, Zea mays; settings: 24 hours after particle bombardment
Excerpt: Zea mays embryos from inbred line B104 that express AAD1 mRNAs having miRNA target sites within the mRNA were produced. Control tissues having no miRNA target sites in the AAD1 mRNA, or having no AAD1 gene expression cassette, were also produced. Other control tissues were produced that had only a YFP gene expression cassette (and no AAD1 construct). Preparations of plant transformation DNA molecules constructed as described in EXAMPLE 2 were delivered into maize B104 immature embryos via particle bombardment transformation.
Plasmid DNAs of pDAB112375, pDAB112376, pDAB112377, pDAB113016, pDAB100286, pDAB112378 and pDAB112330 were isolated and purified from Escherichia coli by standard techniques, and diluted in TE buffer (10 mM Tris HCl plus 1 mM EDTA, pH 8) to 1.0 μg/μL.
Embryo isolation and culture: (Day 1) Surface-sterilized B104 immature ears (10 to 12 days post-pollination) were used for the isolation of embryos. Excised immature embryos from 3 to 4 ears were pooled into 2 mL microfuge tubes containing 2.0 mL liquid medium (LS basal medium (Linsmaier and Skoog, (1965) Physiologia Plantarum 18:100-27) containing CHU N6 vitamins (Chu et al. (1975) Scientia Sinica 18:659-68), 700 mg/L L-Proline, 68.5 gm/L sucrose, 36 gm/L D(+) glucose, and 1.5 mg/L 2,4-D). After embryo isolation, the liquid medium was removed and discarded. Embryos were removed and placed onto plates (40 embryos per plate) containing a semi-solid osmotic medium (MS basal medium (Murashige and Skoog, (1962) Physiologia Plantarum 15:473-497), 2 mg/L Glycine, 500 μg/L Thiamine, 500 μg/L Pyroxidine, 50 μg/L Nicotinic Acid., 120 gm/L sucrose, 100 mg/L myo-inositol, and 2.4 gm/L GELRITE). The embryos were arranged in a […] within the target area for particle bombardment. Three replicate plates were prepared for each construct to be tested. All plates were incubated at 28° C. under continuous low light (50 μEm^−2 sec^−1) for 24 hours prior to particle bombardment.
Coating gold particles with DNA: (Day 2) Tubes of frozen gold particles glycerol stock were thawed on ice for a few minutes, then vortexed for 2 minutes at high speed until a uniform gold suspension was produced. Gold suspension was pipetted into sterile microcentrifuge tubes (50 μL each), with an intermediate vortexing of the particle stock between each tube to maintain a uniform suspension. 2.5 μg each of appropriate plasmid DNAs were included. […]
ELISA quantification of AAD1 and PAT proteins: Enzyme Linked Immunosorbant Assays (ELISAs) were used to measure the production of AAD1 and PAT proteins in maize cells and stably-transformed tissues. […]

Molecule | relative expression levels ([1]; Flag Leaf) | relative expression levels ([1]; Immature Ear) | relative expression levels ([1]; Immature Tassel) | relative expression levels ([1]; Leaf V2) | relative expression levels ([1]; Leaf V8) | relative expression levels ([1]; Mature Ear) | relative expression levels ([1]; Mature Tassel) | level higher in immature tassel tissues than in leaves ([1]; immature tassel vs leaves) | Mean AAD1 Amount ([2]; co-bombardment plasmid pDAB112330 (Cry34Ab)) [ng/mL] | Mean AAD1 Amount ([2]; co-bombardment plasmid pDAB112378 (artificial miRNA)) [ng/mL]
miR319: micro-RNA, SEQ ID NO:3 UUGGACUGAAGGGUGCUCCC (expressed or natural sequence) | 16 | 3905 | 2078 | 13 | 8 | 4616 | 1566 |  |  | 
miR529: Zea mays micro-RNA, SEQ ID NO:2 AGAAGAGAGAGAGUACAGCCU (expressed or natural sequence) | 30 | 90 | 3174 | 199 | 34 | 1405 | 1512 | 16- to 100 fold |  | 
miR156: Zea mays micro-RNA, SEQ ID NO:1 UGACAGAAGAGAGUGAGCAC (expressed or natural sequence) | 1657 | 112 | 78 | 4648 | 1337 | 1595 | 2810 |  |  | 
B1 |  |  |  |  |  |  |  |  | 58 | 51
